# Results as given in US20240182445A1 (ONO PHARMACEUTICAL CO., LTD., priority 2019, published 2024).
# Molecular target: T1, human TREK-1 (Homo sapiens, UniProt O95069)
# T1 construct: expressed in transfected cells
# T1 sequence (O95069 1-426): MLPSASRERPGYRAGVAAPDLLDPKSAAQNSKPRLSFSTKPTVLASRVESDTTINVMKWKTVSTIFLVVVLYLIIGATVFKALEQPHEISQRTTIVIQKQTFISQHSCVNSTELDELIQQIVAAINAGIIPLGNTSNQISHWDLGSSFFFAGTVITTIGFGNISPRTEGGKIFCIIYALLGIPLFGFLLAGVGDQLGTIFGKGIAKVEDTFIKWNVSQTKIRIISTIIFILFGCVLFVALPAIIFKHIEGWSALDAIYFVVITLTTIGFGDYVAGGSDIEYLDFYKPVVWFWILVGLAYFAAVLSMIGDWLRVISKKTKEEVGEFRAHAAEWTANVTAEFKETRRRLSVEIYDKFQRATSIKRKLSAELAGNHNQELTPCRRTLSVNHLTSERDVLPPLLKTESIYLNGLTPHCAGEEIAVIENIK
# Assay: TREK-1 Thallium (Tl+) flux assay, Method 1
# Assay type: cell-based
# Details: TREK-1 Thallium (Tl+) flux assay, Method 1
# How it was run: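 CHO-K1 cells stably expressing human TREK-1, loaded with Thallos dye, received compound or 0.3% DMSO vehicle for 10 min before thallium stimulus buffer. ΔRatio is fluorescence at 25 s after thallium addition over mean pre-addition fluorescence; % inhibition calculated from it.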
row,IC50 [nM],Compound
1,1780,"Cc1cc(OCc2ccccc2)ccc1NC(=O)c1c(Cl)cnn1C1CCN(C(=O)CC(C)C)CC1 [Compound 401, N-(4-(benzyloxy)-2-methylphenyl)-4-chloro-1-(1-(3-methylbutanoyl)piperidin-4-yl)-1H-pyrazole-5-carboxamide]"

# Same assay, conditions: TREK-1 Thallium (Tl+) flux assay; no *^12 (Method 2) mark on these rows
row,IC50 [nM],Compound
1,360,"O=C(Nc1ncc(C#Cc2ccc(F)cc2)cc1F)c1c(Cl)cnn1CC1CCOCC1 [Compound 233, 4-chloro-N-(3-fluoro-5-((4-fluorophenyl)ethynyl)pyridin-2-yl)-1-((tetrahydro-2H-pyran-4-yl)methyl)-1H-pyrazole-5-carboxamide]"
2,840,"Cc1cc(C#Cc2ccccc2)cnc1NC(=O)c1c(Cl)cnn1[C@H]1C[C@@H]2CN(C(=O)C(C)(C)C)C[C@@H]2C1 [Compound 352, 4-chloro-1-[(3aR,5s,6aS)-2-(2,2-dimethylpropanoyl)octahydrocyclopenta [c]pyrrol-5-yl]-N-[3-methyl-5-(phenylethynyl)pyridin-2-yl]-1H-pyrazole-5-carboxamide]"
3,390,"CC(=O)N1CCCC(Cn2ncc(Cl)c2C(=O)Nc2ncc(C#Cc3ccc(F)cc3)cc2C)C1 (centres unmarked) [Compound 248, 1-((1-acetylpiperidin-3-yl)methyl)-4-chloro-N-(5-((4-fluorophenyl)ethynyl)-3-methylpyridin-2-yl)-1H-pyrazole-5-carboxamide]"
4,500,"Cc1cc(C#Cc2ccccc2)cc(F)c1NC(=O)c1c(Cl)cnn1C[C@H]1COCCO1 [Compound 285, (S)-1-((1,4-dioxan-2-yl)methyl)-4-chloro-N-(2-fluoro-6-methyl-4-(phenylethynyl)phenyl)-1H-pyrazole-5-carboxamide]"
5,410,"O=C(Nc1c(F)cc(C#Cc2ccccc2)cc1F)c1c(Cl)cnn1C[C@H]1COCCO1 [Compound 252, (S)-1-((1,4-dioxan-2-yl)methyl)-4-chloro-N-(2,6-difluoro-4-(phenylethynyl)phenyl)-1H-pyrazole-5-carboxamide]"
6,590,"CC(=O)N1CCC(Cn2ncc(Cl)c2C(=O)Nc2ncc(C#Cc3ccc(F)cc3)cc2C)C(F)(F)C1 (centres unmarked) [Compound 313, 1-((1-acetyl-3,3-difluoropiperidin-4-yl)methyl)-4-chloro-N-(5-((4-fluorophenyl)ethynyl)-3-methylpyridin-2-yl)-1H-pyrazole-5-carboxamide]"
7,750,"Cc1cc(C#Cc2ccccc2)cnc1NC(=O)c1c(Cl)cnn1[C@@H]1CCOC1 [Compound 224, (R)-4-chloro-N-(3-methyl-5-(phenylethynyl)pyridin-2-yl)-1-(tetrahydrofuran-3-yl)-1H-pyrazole-5-carboxamide]"
8,380,"CC(=O)N1CCC(Cn2ncc(Cl)c2C(=O)Nc2ncc(C#Cc3ccc(F)cc3)cc2C)C(C)C1 (centres unmarked) [Compound 244, 1-((1-acetyl-3-methylpiperidin-4-yl)methyl)-4-chloro-N-(5-((4-fluorophenyl)ethynyl)-3-methylpyridin-2-yl)-1H-pyrazole-5-carboxamide]"
9,940,"Cc1cc(C#Cc2ccc(F)cc2)cnc1NC(=O)c1c(Cl)cnn1CC1CN(C(=O)C2CCC2)CCO1 (centres unmarked) [Compound 367, 4-chloro-1-((4-(cyclobutanecarbonyl)morpholin-2-yl)methyl)-N-(5-((4-fluorophenyl)ethynyl)-3-methylpyridin-2-yl)-1H-pyrazole-5-carboxamide]"

row,Compound,IC50 [nM]
1,"CC(=O)N1CC2CC(C1)C2Cn1ncc(Cl)c1C(=O)Nc1ncc(C#Cc2ccccc2)cc1F (centres unmarked) [Compound 326, 1-((3-acetyl-3-azabicyclo[3.1.1]heptan-6-yl)methyl)-4-chloro-N-(3-fluoro-5-(phenylethynyl)pyridin-2-yl)-1H-pyrazole-5-carboxamide]",640

# Same assay, conditions: TREK-1 Thallium (Tl+) flux assay; values without footnote *12 are Method 1
row,IC50 [nM],Compound
1,280,"Cc1cc(C#Cc2ccccc2)cc(F)c1NC(=O)c1c(Cl)cnn1C1CCOCC1 [Compound 180, 4-chloro-N-(2-fluoro-6-methyl-4-(phenylethynyl)phenyl)-1-(tetrahydro-2H-pyran-4-yl)-1H-pyrazole-5-carboxamide]"
2,90,"Cc1cc(C#Cc2ccccc2)cnc1NC(=O)c1c(Cl)cnn1C(C)C1CCN(C(=O)C(C)C)CC1 (centres unmarked) [Compound 28, 4-chloro-1-(1-(1-isobutyrylpiperidin-4-yl)ethyl)-N-(3-methyl-5-(phenylethynyl)pyridin-2-yl)-1H-pyrazole-5-carboxamide]"
3,270,"CC(=O)N1CCC(C#N)(Cn2ncc(Cl)c2C(=O)Nc2ncc(C#Cc3ccc(F)cc3)cc2C)CC1 [Compound 179, 1-((1-acetyl-4-cyanopiperidin-4-yl)methyl)-4-chloro-N-(5-((4-fluorophenyl)ethynyl)-3-methylpyridin-2-yl)-1H-pyrazole-5-carboxamide]"
4,160,"Cc1cc(C#Cc2ccccc2)cnc1NC(=O)c1c(Cl)cnn1C1CCN(C(=O)C2COCCO2)C1 (centres unmarked) [Compound 80, 1-(1-(1,4-dioxane-2-carbonyl)pyrrolidin-3-yl)-4-chloro-N-(3-methyl-5-(phenylethynyl)pyridin-2-yl)-1H-pyrazole-5-carboxamide]"
5,200,"Cc1cc(C#Cc2ccc(F)cc2)cnc1NC(=O)c1c(Cl)cnn1CC1(C#N)CCN(C(=O)C(C)C)CC1 [Compound 119, 4-chloro-1-((4-cyano-1-isobutyrylpiperidin-4-yl)methyl)-N-(5-((4-fluorophenyl)ethynyl)-3-methylpyridin-2-yl)-1H-pyrazole-5-carboxamide]"
6,270,"Cc1cc(C#Cc2ccccc2)cnc1NC(=O)c1c(Cl)cnn1CCC1CCN(C(=O)C2CC2)CC1 [Compound 172, 4-chloro-1-(2-(1-(cyclopropanecarbonyl)piperidin-4-yl)ethyl)-N-(3-methyl-5-(phenylethynyl)pyridin-2-yl)-1H-pyrazole-5-carboxamide]"
7,200,"CC(=O)N1CC2(CC(n3ncc(Cl)c3C(=O)Nc3ncc(C#Cc4ccccc4)cc3F)C2)C1 [Compound 113, 1-(2-acetyl-2-azaspiro[3.3]heptan-6-yl)-4-chloro-N-(3-fluoro-5-(phenylethynyl)pyridin-2-yl)-1H-pyrazole-5-carboxamide]"
8,260,O=C(Nc1c(F)cc(C#Cc2ccccc2)cc1F)c1c(Cl)cnn1C[C@@H]1CCOC1 [Compound 161]
9,230,"CC(C)(C)OC(=O)N1CCC(Cn2ncc(Cl)c2C(=O)Nc2ncc(C#Cc3ccccc3)cc2F)CC1 [Compound 142, tert-butyl 4-((4-chloro-5-((3-fluoro-5-(phenylethynyl)pyridin-2-yl)carbamoyl)-1H-pyrazol-1-yl)methyl)piperidine-1-carboxylate]"
10,270,"CC(=O)N1CCCC(Cn2ncc(Cl)c2C(=O)Nc2ncc(C#Cc3ccccc3)cc2C)C1 (centres unmarked) [Compound 176, 1-((1-acetylpiperdin-3-yl)methyl)-4-chloro-N-(3-methyl-5-(phenylethynyl)pyridin-2-yl)-1H-pyrazole-5-carboxamide]"
11,160,"Cc1cc(C#Cc2ccccc2)cnc1NC(=O)c1c(Cl)cnn1C1CN(C(=O)C2COCCO2)C1 (centres unmarked) [Compound 81, 1-(1-(1,4-dioxane-2-carbonyl)azetidin-3-yl)-4-chloro-N-(3-methyl-5-(phenylethynyl)pyridin-2-yl)-1H-pyrazole-5-carboxamide]"
12,220,"CCNC(=O)N1C[C@H]2C[C@H](n3ncc(Cl)c3C(=O)Nc3ncc(C#Cc4cccc(F)c4)cc3C)C[C@H]2C1 [Compound 132, (3aR,5s,6aS)-5-[4-chloro-5-({5-[(3-fluorophenyl)ethynyl]-3-methylpyridin-2-yl}carbamoyl)-1H-pyrazol-1-yl]-N-ethylhexahydrocyclopenta[c]pyrrole-2(1H)-carboxamide]"
